Here are results for eleven molecules from PubChem BioAssay (NCI).

Several values for one entry are separate records, joined by “and”; a condition that tells them apart may be missing. Identical values can stand only once.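 Grown in 96-well plates, cells were treated for 48 hours with each compound at five concentrations. Insufficient inhibition: endpoint recorded as highest concentration tested. Abbreviation: GI50, concentration required for 50% inhibition of growth. TGI denotes the concentration required for complete inhibition of growth.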 A value given as a limit tells only on which side of the number the result lay.

Some test systems named below: CCRF-CEM leukemia; HT29 colon; KM12 colon; NCI-H23 lung; NCI-H460 lung; OVCAR-3 ovarian; SW-620 colon; U251 CNS; UACC-257 melanoma; A498 renal.
Experiment in all cases: DTP human tumour cell line panel, 48 h

Regarding `NC(=O)CCCC(NCc1c2ccccc2nc2ccccc12)C(=O)O` (centres undefined), the TGI (in general, the concentration at which net growth stops) in the assay with CCRF-CEM leukemia was 71.6 µM; in the assay with HT29 colon, above 100 µM; with KM12 colon it was above 100 µM; in the assay with NCI-H23 lung, above 100 µM; with NCI-H460 lung, above 100 µM; in the assay with OVCAR-3 ovarian, above 100 µM. Further, the total growth inhibition concentration (TGI) in the assay with SW-620 colon, in the assay with U251 CNS and in the assay with UACC-257 melanoma was above 100 µM throughout.
For `O=S(=O)(Sc1ccc(Cl)cc1)c1ccc(Cl)cc1`, the TGI with A498 renal was 34.5 µM; in the assay with CCRF-CEM leukemia it was 18.5 µM; in the assay with HT29 colon, 35 µM; with KM12 colon, 32.5 µM; in the assay on NCI-H23 lung, 30.5 µM; in the assay on NCI-H460 lung, 37.4 µM. Moreover, the TGI in the assay on OVCAR-3 ovarian was determined as 30.2 µM; in the assay with SW-620 colon, 32.6 µM; in the assay on U251 CNS, 22.3 µM; in the assay with UACC-257 melanoma it was 36.3 µM.
For `CC1C(O)C2(Oc3cc4c(c5c3[C@@H](CC5O)[C@H]2C)CCC2Cc3nc5c(nc3C[C@@]42C)CC2CCC3C4=C[C@H]6O[C@@]7(O[C@@](C)(CO)C[C@@H]7O)C(C)[C@@]6(O)[C@]4(C)[C@@H](O)CC3[C@]2(C)C5)OC1(C)C` (some centres undefined), the total growth inhibition concentration (TGI) was 0.208 µM in the assay with A498 renal; 0.194 µM in the assay with CCRF-CEM leukemia; 0.456 µM with HT29 colon; above 3.67 µM in the assay on KM12 colon; 0.654 µM in the assay with NCI-H23 lung; 0.386 µM with NCI-H460 lung. Besides, the total growth inhibition concentration (TGI) in the assay on OVCAR-3 ovarian is 0.406 µM; with SW-620 colon, 1.05 µM; in the assay with U251 CNS it was 0.114 µM; in the assay with UACC-257 melanoma, above 3.67 µM.
For the molecule `O=NC1C(Cl)C2CC1C1C(Br)C(Br)CC21` (centres undefined), the concentration for total growth inhibition (TGI) in the assay on A498 renal, in the assay with CCRF-CEM leukemia, with HT29 colon, in the assay with KM12 colon, with NCI-H23 lung and with NCI-H460 lung was above 100 µM each time. Moreover, the total growth inhibition concentration (TGI) with OVCAR-3 ovarian, in the assay with SW-620 colon and in the assay with U251 CNS was above 100 µM throughout.
As to `N#CC(c1ccccc1)c1nc2ccc(=N)cc-2n(O)c1C(C#N)c1ccccc1` (centres undefined), the TGI in the assay with A498 renal, in the assay with CCRF-CEM leukemia, with HT29 colon, in the assay with KM12 colon, in the assay on NCI-H23 lung and in the assay on NCI-H460 lung was above 100 µM each time. Moreover, the concentration for total growth inhibition (TGI) in the assay on OVCAR-3 ovarian, in the assay on SW-620 colon, in the assay on U251 CNS and in the assay on UACC-257 melanoma was above 100 µM each time.
For `CN1CCCCC1CCN1CCCCC1` (centres undefined), the total growth inhibition concentration (TGI) with A498 renal, in the assay on HT29 colon, with KM12 colon, with NCI-H23 lung, with NCI-H460 lung and in the assay on OVCAR-3 ovarian was above 100 µM throughout. In addition, the concentration for total growth inhibition (TGI) with SW-620 colon, with U251 CNS and in the assay on UACC-257 melanoma was above 100 µM throughout.
Turning to `CN(C)CCNc1nc(-c2ccc3ccccc3c2)nc2nc[nH]c12`, the TGI in the assay with CCRF-CEM leukemia was 52.9 µM; in the assay with HT29 colon, 16.4 µM; with KM12 colon, 19.3 µM; in the assay with NCI-H23 lung, 23.9 µM; in the assay with NCI-H460 lung, 15.6 µM; with OVCAR-3 ovarian, 21 µM. The results for the TGI in the assay on SW-620 colon, in the assay with U251 CNS and with UACC-257 melanoma were 24.6 µM, 31 µM and 19.5 µM, respectively.
For the molecule `CN(C)c1ccc(/C=N\NC(=O)CSCC(=O)N/N=C/c2ccc(N(C)C)cc2)cc1`, the TGI in the assay with CCRF-CEM leukemia, in the assay on HT29 colon, in the assay on KM12 colon, in the assay with NCI-H23 lung, in the assay with NCI-H460 lung and with OVCAR-3 ovarian was above 100 µM each time. Also, the TGI with SW-620 colon, in the assay with U251 CNS and in the assay with UACC-257 melanoma was above 100 µM each time.
Take `CC12CCC(C(=O)OC1=O)C(C)(C)O2` (centres undefined): the TGI with CCRF-CEM leukemia, with HT29 colon, with KM12 colon, in the assay with NCI-H23 lung, in the assay with NCI-H460 lung and with OVCAR-3 ovarian was above 100 µM each time. Besides, the TGI in the assay on SW-620 colon, in the assay with U251 CNS and in the assay on UACC-257 melanoma was above 100 µM each time.
Consider `Cc1cc(NCc2cc(Nc3ccnc4cc(Cl)ccc34)ccc2F)nc(N2CCCC2)n1`, for which the GI50 – broadly, the concentration giving 50% growth inhibition – in the assay with A498 renal was 1.44 µM; in the assay with CCRF-CEM leukemia, 0.353 µM; in the assay with HT29 colon it was 0.877 µM; in the assay with KM12 colon, 1.97 µM; with NCI-H23 lung it was 1.83 µM; in the assay with NCI-H460 lung it was 1.35 µM. Further, the GI50 is 1.63 µM in the assay with OVCAR-3 ovarian, 1.23 µM in the assay with SW-620 colon, 1.73 µM with U251 CNS and 1.87 µM with UACC-257 melanoma. Further, the total growth inhibition concentration (TGI) in the assay with A498 renal was 3.32 µM; with CCRF-CEM leukemia, above 100 µM; in the assay with HT29 colon it was 2.27 µM; in the assay on KM12 colon, 4.53 µM; in the assay with NCI-H23 lung, 4.68 µM; in the assay on NCI-H460 lung it was 2.96 µM. The concentration for total growth inhibition (TGI) worked out at 3.22 µM with OVCAR-3 ovarian, 2.95 µM with SW-620 colon, 3.32 µM in the assay with U251 CNS and 3.53 µM in the assay on UACC-257 melanoma.
As to `Cc1c2cc[n+](CCN3CCCCC3)cc2c(C)c2c1[nH]c1ccc(O)cc12`, the GI50 with A498 renal was 3.48 µM; in the assay with CCRF-CEM leukemia, 1.8 µM; in the assay with HT29 colon, 4.67 µM; in the assay on KM12 colon, 3.14 µM; in the assay on NCI-H23 lung it was 2.6 µM; with NCI-H460 lung it was 0.523 µM. Also, the GI50 in the assay with OVCAR-3 ovarian was 11.1 µM; in the assay on SW-620 colon, 6.26 µM; in the assay on U251 CNS, 1.7 µM; in the assay with UACC-257 melanoma, 28.7 µM. Also, the TGI in the assay with A498 renal was 48 µM and 30.5 µM; with CCRF-CEM leukemia, 17.4 µM and > 100 µM; with HT29 colon, 28 µM and 47.4 µM; in the assay with KM12 colon, 27.9 µM and 14.1 µM; with NCI-H23 lung, 53.1 µM and 27.7 µM; in the assay on NCI-H460 lung, 10 µM and > 32.8 µM. Further, the TGI in the assay with OVCAR-3 ovarian was 40.2 µM and > 50.3 µM; in the assay with SW-620 colon, 55.4 µM and > 71 µM; in the assay with U251 CNS, 10.6 µM and 10.4 µM; in the assay on UACC-257 melanoma, 29 µM and > 74 µM.
